Experiments:
Assay type in all cases: in vivo
Sphaerotheca fuliginea = assay: Sphaerotheca test (cucumber)/protective; details: protective spray, active compound concentration 100 ppm, evaluation 10 days after inoculation
Description: (§1) Sphaerotheca Test (Cucumber)/Protective Solvent: 4.7 parts by weight of acetone Emulsifier: 0.3 part by weight of alkylaryl polyglycol ether To produce a suitable preparation of active compound, 1 part by weight of active compound is mixed with the stated amounts of solvent and emulsifier, and the concentrate is diluted with water to the desired concentration. To test for protective activity, young plants are sprayed with the preparation of active compound. After the spray coating has dried on, the plants are dusted with conidia of the fungus Sphaerotheca fuliginea. The plants are then placed in a greenhouse at 23 to 24° C. and at a relative atmospheric humidity of about 75%. Evaluation is carried out 10 days after the inoculation.

Plasmopara viticola = assay: Plasmopara test (vine)/protective; details: protective spray, active compound concentration 100 ppm, evaluation 6 days after inoculation
Description: Plasmopara Test (Vine)/Protective Solvent: 4.7 parts by weight of acetone Emulsifier: 0.3 part by weight of alkylaryl polyglycol ether To produce a suitable preparation of active compound, 1 part by weight of active compound is mixed with the stated amounts of solvent and emulsifier, and the concentrate is diluted with water to the desired concentration. To test for protective activity, young plants are sprayed with the preparation of active compound. After the spray coating has dried on, the plants are inoculated with an aqueous spore suspension of Plasmopara viticola and then remain in a humidity chamber at 20 to 22° C. and 100% relative atmospheric humidity for 1 day. The plants are then placed in a greenhouse at 21° C. and about 90% atmospheric humidity for 5 days. The plants are then moistened and placed in a humidity chamber for 1 day. Evaluation is carried out 6 days after the inoculation.

Leptosphaeria nodorum = Leptosphaeria nodorum test (wheat)/protective; details: protective spray, application rate 250 g/ha, evaluation 10 days after inoculation
Description: Leptosphaeria nodorun Test (Wheat)/Protective Solvent: 10 parts by weight of N-methyl-pyrrolidone Emulsifier: 0.6 part by weight of alkylaryl polyglycol ether To produce a suitable preparation of active compound, 1 part by weight of active compound is mixed with the stated amounts of solvent and emulsifier, and the concentrate is diluted with water to the desired concentration. To test for protective activity, young plants are sprayed with the preparation of active compound. After the spray coating has dried on, the plants are sprayed with a spore suspension of Leptosphaeria nodorum. The plants remain for 48 hours in an incubation cabin at 20° C. and 100% relative atmospheric humidity. The plants are placed in a greenhouse at a temperature of about 15° C. and a relative atmospheric humidity of about 80%. Evaluation is effected 10 days after the inoculation.

Venturia inaequalis = assay: Venturia test (apple)/protective; details: protective spray, active compound concentration 10 ppm, evaluation 12 days after inoculation
Description: Venturia Test (Apple)/Protective Solvent: 4.7 parts by weight of acetone Emulsifier: 0.3 part by weight of alkylaryl polyglycol ether To produce a suitable preparation of active compound, 1 part by weight of active compound is mixed with the stated amounts of solvent and emulsifier, and the concentrate is diluted with water to the desired concentration. To test for protective activity, young plants are sprayed with the preparation of active compound. After the spray coating has dried on, the plants are inoculated with an aqueous conidia suspension of the apple scab causative organism Venturia inaequalis and then left in an incubation cabin at 20° C. and 100% relative atmospheric humidity for 1 day. The plants are then placed in a greenhouse at 20° C. and a relative atmospheric humidity of about 70%. Evaluation is carried out 12 days after the inoculation.

Uncinula necator = assay: Uncinula test (vine)/protective; details: protective spray, evaluation 14 days after inoculation
Description: as §1, with “Uncinula” for “Sphaerotheca”, “(Vine)/Protective” for “(Cucumber)/Protective”, “Uncinula necator.” for “Sphaerotheca fuliginea.”, “and” for “and at”, “effected 14” for “carried out 10”

[1] = test system: Erysiphe graminis f.sp. hordei; assay: Erysiphe test (barley)/protective; details: protective spray, application rate 250 g/ha, evaluation 7 days after inoculation
Description: Erysiphe Test (Barley)/Protective Solvent: 10 parts by weight of N-methyl-pyrrolidone Emulsifier: 0.6 part by weight of alkylaryl polyglycol ether To produce a suitable preparation of active compound, 1 part by weight of active compound is mixed with the stated amounts of solvent and emulsifier, and the concentrate is diluted with water to the desired concentration. To test for protective activity, young plants are sprayed with the preparation of active compound at given application rate. After the spray coating has dried on, the plants are dusted with spores of Erysiphe graminis f.sp. hordei. The plants are placed in a greenhouse at a temperature of about 20° C. and a relative atmospheric humidity of about 80%, in order to promote the development of powdery mildew pustules. Evaluation is carried out 7 days after the inoculation.

Structure (SMILES): COC(=O)/C(=C/OCF)c1ccccc1Oc1nc(-c2ccc(Br)cc2)ns1 [Example 2, methyl 2-{2-[3-(4-bromophenyl)-1,2,4-thiadiazol-5-yloxy]-phenyl}-3-fluoromethoxy-acrylate]
- Efficacy in % of the untreated control (Sphaerotheca fuliginea): 100%
- Efficacy in % of the untreated control (Plasmopara viticola): 100%
- Efficacy in %, relative to the untreated control (Leptosphaeria nodorum): 88%
- Efficacy in % of the untreated control (Venturia inaequalis): 100%
- Efficacy (Uncinula necator; active compound concentration 10 ppm): 100%
- Efficacy in % of the untreated control (Uncinula necator; active compound concentration 25 ppm (table)): 100%
- Efficacy in % of the untreated control [1]: 81%

— patent US6337401B1, “Fluoromethoxyacrylic acid derivatives and their use as pest control agents” (Bayer Aktiengesellschaft, priority 1995, dated 2002)
